According to patent publication US20200179269A1, “VAPORIZABLE COMPOSITIONS COMPRISING CANNABINOL” (KANABO RESEARCH LTD., priority 2017, published 2020):

Tested on: Loss of Righting Reflex (LORR) in mice
Assay: Sleep induction model in mice: Loss of Righting Reflex (LORR) after Pentobarbital, sleep latency and sleep duration
Format: in vivo, mice BALB/c
Set-up: Sleep latency median / Sleep latency (mean) / Sleep duration median / Sleep duration (mean): unit not given here
Source text: The objective of the present study is to evaluate various cannabinoid mixtures with terpenes in the sleep induction model in mice and then in the second part optimize the doses.
Study Variables and End Points • Mortality and morbidity—once a day. • Body weight—during acclimation and before dosing. • Behavioral test—righting reflex—sleep latency and duration
The principle of the study is based on the ability of sleep promoting agents to shorten the time until Loss of Righting Reflex (LORR) occurs and prolong the presence of LORR in rodents treated with established anesthetizing agent.
Mice were be utilized and divided into 62 groups of three in each group.
Combinations of 3 different cannabinoids: CBN, CBD and THC and 2 terpenes: (β-myrcene and linalool were tested. Diazepam (2 mg/kg) was used as a positive control. Ethanol:Cremophor:Saline (1:1:18) was used as negative control. The items were dissolved in Ethanol:Cremophor:Saline. The items, positive and negative controls were IP injected. Three (or four) mice were used for each group. 5 cycles of experiments were performed. In Cycles 1 each cannabinoid at different concentrations was separately administered; in Cycle 2—combinations of the cannabinoids with different concentration were administered (4 mice per group were used for items), in Cycle 3—different terpenes at different concentration were administered, in Cycle 4—combinations of different cannabinoids and terpenes were administered and in Cycle 5—compositions with high content of cannabinoids and low content of terpenes were tested (4 mice per group).
Female mice BALB/c strain of 7 weeks age were used for the experiment. The mice were allowed to acclimatize for at least 5 days. Animals were fed ad libitum a commercial rodent diet (Teklad Certified Global 18% Protein Diet, Harlan cat #2018). Animals had free access to sterilized and acidified drinking water (pH between 2.5 and 3.5) obtained from the municipality supply. Animals were housed under standard laboratory conditions, air conditioned and filtered (HEPA F6/6) with adequate fresh air supply (Minimum 15 air changes/hour). Animals were kept in a climate controlled environment. Temperatures range were 18-24° C. and relative humidity range 30-70% with a 12 hours light and 12 hours dark cycle (6 AM/6 PM).
The duration of the study was one day per cycle. The study was conducted in five cycles (see Tables 10-15). Each Test Item or vehicle formulation was administrated to three (or four) animals per group. Morbidity and mortality was checked once a day.
Sleeping Test was performed according to Pharmaseed's SOP No. 130: “Loss of Righting Reflex”. Mice were injected intraperitoneally (IP) with the positive control Diazepam (2 mg/kg, IP), vehicle or with the Test Items 30 minutes prior to Pentobarbital (40 mg/kg, IP) administration. Observation of the mouse begun immediately after administration of Pentobarbital. Once the mouse was asleep (the loss of righting reflex—LORR), it was be transferred to a home cage and placed on its back. Mice was considered awake when they could successfully upright themselves (all four feet in contact with the surface). Once a mouse righted itself, it was placed on its back once again and allowed to right a second time for confirmation. Expected sleep onset and duration of the negative control group was 5-8 min and 20-25 min, respectively. For positive control expected sleep onset and duration were 3-4 min and 40-50 min, respectively.
While the animals were asleep, fatty ophthalmic ointment (e.g. Duratears®) was be applied to their eyes to avoid drying of the eye. Also, since Diazepam might cause hypothermia, the cages with the sleeping mice were be placed on a heating pad.
The following parameters were be recorded and served as an index of sleep behavior: • Sleep latency—time required to sleep induction. • Sleep duration.
At termination, the animals were sacrificed by CO2 asphyxiation.

[1] = Cycle 4, group 43F, Diazepam 2 mg/kg
[2] = Cycle 1, high doses (above 5 mg/kg)

SMILES: C=C(C)[C@@H]1CCC(C)=C[C@H]1c1c(O)cc(CCCCC)cc1O [CBD, cannabidiol]
- effect on sleeping (Cycle 1, 1 mg/kg dose): assisted in sleeping
- Sleep duration (mean) (Cycle 1, dose 1 mg/kg IP): (14)
- Sleep duration median (Cycle 1, dose 1 mg/kg IP): 9
- Sleep latency (mean) (Cycle 1, dose 1 mg/kg IP): (13)
- Sleep latency median (Cycle 1, dose 1 mg/kg IP): 16
- Sleep duration (mean) (Cycle 1, dose 5 mg/kg IP): (49)
- Sleep duration median (Cycle 1, dose 5 mg/kg IP): 49
- Sleep latency (mean) (Cycle 1, dose 5 mg/kg IP): (6)
- Sleep latency median (Cycle 1, dose 5 mg/kg IP): 6
- Sleep duration (mean) (Cycle 1, dose 20 mg/kg IP): (48)
- Sleep duration median (Cycle 1, dose 20 mg/kg IP): 48
- Sleep latency (mean) (Cycle 1, dose 20 mg/kg IP): (8)
- Sleep latency median (Cycle 1, dose 20 mg/kg IP): 9
- Sleep duration (mean) (Cycle 1, dose 50 mg/kg IP): (84)
- Sleep duration median (Cycle 1, dose 50 mg/kg IP): 68
- Sleep latency (mean) (Cycle 1, dose 50 mg/kg IP): (6)
- Sleep latency median (Cycle 1, dose 50 mg/kg IP): 6

SMILES: CCCCCc1cc(O)c2c(c1)OC(C)(C)c1ccc(C)cc1-2 [CBN, 6,6,9-trimethyl-3-pentylbenzo[c]chromen-1-ol]
- dose response for duration of sleep parameter (Cycle 1): moderate dose response
- Sleep duration (mean) (Cycle 1, dose 0.1 mg/kg IP): (26)
- Sleep duration median (Cycle 1, dose 0.1 mg/kg IP): 34
- Sleep latency (mean) (Cycle 1, dose 0.1 mg/kg IP): (5)
- Sleep latency median (Cycle 1, dose 0.1 mg/kg IP): 4
- Sleep duration (mean) (Cycle 1, dose 0.5 mg/kg IP): (14)
- Sleep duration median (Cycle 1, dose 0.5 mg/kg IP): 15
- Sleep latency (mean) (Cycle 1, dose 0.5 mg/kg IP): (8)
- Sleep latency median (Cycle 1, dose 0.5 mg/kg IP): 8
- Sleep duration (mean) (Cycle 1, dose 2 mg/kg IP): (23)
- Sleep duration median (Cycle 1, dose 2 mg/kg IP): 25
- Sleep latency (mean) (Cycle 1, dose 2 mg/kg IP): (6)
- Sleep latency median (Cycle 1, dose 2 mg/kg IP): 6
- Sleep duration (mean) (Cycle 1, dose 5 mg/kg IP): (31)
- Sleep duration median (Cycle 1, dose 5 mg/kg IP): 32
- Sleep latency (mean) (Cycle 1, dose 5 mg/kg IP): (9)
- Sleep latency median (Cycle 1, dose 5 mg/kg IP): 8

SMILES: CN1C(=O)CN=C(c2ccccc2)c2cc(Cl)ccc21 [Diazepam, reference compound]
- state of the mice after awakening (Cycle 1): remained dizzy for a prolonged period of time
- Sleep duration (mean) (Cycle 1, dose 2 mg/kg IP): (94)
- Sleep duration median (Cycle 1, dose 2 mg/kg IP): 94
- Sleep latency (mean) (Cycle 1, dose 2 mg/kg IP): (3)
- Sleep latency median (Cycle 1, dose 2 mg/kg IP): 2
- Sleep duration (mean) (Cycle 2, dose 2 mg/kg IP): (51.7)
- Sleep duration median (Cycle 2, dose 2 mg/kg IP): 56
- Sleep latency (mean) (Cycle 2, dose 2 mg/kg IP): (4.3)
- Sleep latency median (Cycle 2, dose 2 mg/kg IP): 4
- Sleep duration (mean) (Cycle 3, Dose 2, IP): (66.3)
- Sleep duration median (Cycle 3, Dose 2, IP): 60
- Sleep latency (mean) (Cycle 3, Dose 2, IP): (2.3)
- Sleep latency median (Cycle 3, Dose 2, IP): 2
- Sleep duration (mean) [1]: (76)
- Sleep duration median [1]: 69
- Sleep latency (mean) [1]: (3.3)
- Sleep latency median [1]: 3

SMILES: C=CC(C)(O)CCC=C(C)C (stereo not shown) [Linalool, linalool]
- Sleep duration (mean) (Cycle 3, Dose 20, IP): (5.3)
- Sleep duration median (Cycle 3, Dose 20, IP): 6
- Sleep latency (mean) (Cycle 3, Dose 20, IP): (5)
- Sleep latency median (Cycle 3, Dose 20, IP): 5
- Sleep duration (mean) (Cycle 3, Dose 100, IP): (5.3)
- Sleep duration median (Cycle 3, Dose 100, IP): 6
- Sleep latency (mean) (Cycle 3, Dose 100, IP): (5.5)
- Sleep latency median (Cycle 3, Dose 100, IP): 5
- Sleep duration (mean) (Cycle 3, Dose 300, IP): (97.3)
- Sleep duration median (Cycle 3, Dose 300, IP): 120
- Sleep latency (mean) (Cycle 3, Dose 300, IP): (2)
- Sleep latency median (Cycle 3, Dose 300, IP): 2
- dose response of the terpene in combination with CBN and CBD (Cycle 4): evident dose response
- Sleep duration (mean) (Cycle 5, dose 10 mg/kg IP): (6)
- Sleep duration median (Cycle 5, dose 10 mg/kg IP): 6.5
- Sleep latency (mean) (Cycle 5, dose 10 mg/kg IP): (8)
- Sleep latency median (Cycle 5, dose 10 mg/kg IP): 8

SMILES: C=CC(=C)CCC=C(C)C [Myrcene, β-myrcene]
- Sleep duration (mean) (Cycle 3, Dose 20, IP): (8.7)
- Sleep duration median (Cycle 3, Dose 20, IP): 9
- Sleep latency (mean) (Cycle 3, Dose 20, IP): (4.7)
- Sleep latency median (Cycle 3, Dose 20, IP): 5
- Sleep duration (mean) (Cycle 3, Dose 100, IP): (7.3)
- Sleep duration median (Cycle 3, Dose 100, IP): 7
- Sleep latency (mean) (Cycle 3, Dose 100, IP): (5)
- Sleep latency median (Cycle 3, Dose 100, IP): 5
- Sleep duration (mean) (Cycle 3, Dose 300, IP): (61.3)
- Sleep duration median (Cycle 3, Dose 300, IP): 31
- Sleep latency (mean) (Cycle 3, Dose 300, IP): (3)
- Sleep latency median (Cycle 3, Dose 300, IP): 3
- dose response of the terpene in combination with CBN and CBD (Cycle 4): evident dose response
- Sleep duration (mean) (Cycle 5, dose 10 mg/kg IP): (5)
- Sleep duration median (Cycle 5, dose 10 mg/kg IP): 5
- Sleep latency (mean) (Cycle 5, dose 10 mg/kg IP): (5)
- Sleep latency median (Cycle 5, dose 10 mg/kg IP): 5

SMILES: CCCCCc1cc(O)c2c(c1)OC(C)(C)[C@@H]1CCC(C)=C[C@@H]21 [THC, tetrahydrocannabinol]
- state of the mice after awakening (Cycle 1): much more vivid after awakening
- Sleep duration (mean) (Cycle 1, dose 0.5 mg/kg IP): (6)
- Sleep duration median (Cycle 1, dose 0.5 mg/kg IP): 8
- Sleep latency (mean) (Cycle 1, dose 0.5 mg/kg IP): (4)
- Sleep latency median (Cycle 1, dose 0.5 mg/kg IP): 4
- Sleep duration (mean) (Cycle 1, dose 2 mg/kg IP): (12)
- Sleep duration median (Cycle 1, dose 2 mg/kg IP): 0
- Sleep latency (mean) (Cycle 1, dose 2 mg/kg IP): (20)
- Sleep latency median (Cycle 1, dose 2 mg/kg IP): 20
- Sleep duration (mean) (Cycle 1, dose 5 mg/kg IP): (10)
- Sleep duration median (Cycle 1, dose 5 mg/kg IP): 9
- Sleep latency (mean) (Cycle 1, dose 5 mg/kg IP): (25)
- Sleep latency median (Cycle 1, dose 5 mg/kg IP): 24
- Sleep duration (mean) (Cycle 1, dose 10 mg/kg IP): (21)
- Sleep duration median (Cycle 1, dose 10 mg/kg IP): 11
- Sleep latency (mean) (Cycle 1, dose 10 mg/kg IP): (11)
- Sleep latency median (Cycle 1, dose 10 mg/kg IP): 11
- effect on sleep duration [2]: decreases the sleep duration
- effect on sleep latency (time required for falling asleep) [2]: increases the sleep latency
- effect on onset of sleep (Cycle 1, medium concentrations (2-5 mg/kg)): increases the onset of sleep
- effect of addition to the combination of CBN, CBD and terpene (Cycle 4, 0.5 mg/kg): reduced the observed effect
